Where only a bound is given, the exact number is not on record here.

In general, IC50 refers to the concentration that gives 50% inhibition.

One test has as its system IKKε-mediated phosphorylation of IRF3. As to the kind of experiment: ELISA for in-situ phosphorylation of IRF3 (phospho-Ser396) in HEK293T cells cotransfected with IRF3 and IKKε. It counts as cell-based. To be noted: Homo sapiens, HEK-293T, 20 h, HEK293T cells, 20 hours; range given from about 1 μM to about 250 nM; read-out: IC50, in-situ IKKε-mediated phosphorylation of IRF3. The method, then: HEK293T cells were cotransfected in a 10-cm dish with IRF3 and IKKε expression plasmids using Lipofectamine 2000 (Invitrogen, Carlsbad, Calif.). The following day, cells were replated at 20,000 per well in 96-well plates and treated with test compounds (compounds according to Formulae I and/or II) for 20 hours. Cell lysates were prepared and analyzed using an ELISA for phospho-Ser396 (anti-IRF3 capture antibody, Santa Cruz Biotechnology, Inc., Santa Cruz, Calif.; anti-p-Ser396 IRF3 detection antibody, Cell Signaling, Danvers, Mass.). pIRF3 levels in compound treated cells were normalized to DMSO treated cells (no compound). Cell viability was assayed in a parallel set of plates to monitor cytotoxic effects of the test compounds (CellTiter-Glo, Promega, Inc., Madison, Wis.). TBK1 activity was tested by Western blotting using a phospho-specific IRF7 antibody. Similar to above, HEK293T cells were transfected with IRF7 and TBK1 expression plasmids. Cells were seeded in 12-well plates at 150,000 per well and treated overnight with test compounds. Protein lysates were prepared and processed for Western blotting followed by detection using a phosphor-Ser477/Ser479 IRF7 antibody (BD Biosciences, San Jose, Calif.)
For orientation: In an ELISA, binding on a coated surface is turned into a signal by an enzyme label.
In the case of `COC1CN(C(=O)c2cncc(Nc3nccc(-c4ccc(OC5CCOCC5)c(C#N)c4)n3)c2)C1` [Example Compound 171, 5-[2-({5-[(3-Methoxyazetidin-1-yl)carbonyl]pyridin-3-yl}amino)pyrimidin-4-yl]-2-(tetrahydro-2H-pyran-4-yloxy)benzonitrile], the IC50 is 0.25 to 1 µM. On the same count and under the same terms, next, `N#Cc1cc(-c2ccnc(Nc3ccnc(N4CCC[C@H]4CO)c3)n2)ccc1OC1CCOCC1` [Example Compound 180, 5-[2-({2-[(2S)-2-(Hydroxymethyl)pyrrolidin-1-yl]pyridin-4-yl}amino)pyrimidin-4-yl]-2-(tetrahydro-2H-pyran-4-yloxy)benzonitrile]: 0.25 to 1 µM; `CN(C)c1ccc(Nc2nccc(-c3ccc(OC4CCN(C(=O)CO)C4)c(C#N)c3)n2)cn1` (stereo not shown) [Example Compound 192, 5-(2-{[6-(Dimethylamino)pyridin-3-yl]amino}pyrimidin-4-yl)-2-{[1-(hydroxyacetyl)pyrrolidin-3-yl]oxy}benzonitrile]: 0.25 to 1 µM.

Take `CNCc1cncc(Nc2nccc(-c3ccc(OC4CCOCC4)c(C#N)c3)n2)c1` [Example Compound 203, 5-[2-({5-[(Methylamino)methyl]pyridin-3-yl}amino)pyrimidin-4-yl]-2-(tetrahydro-2H-pyran-4-yloxy)benzonitrile]: the IC50 lay in the range of 0.25 to 1 µM. On the same count and under the same terms, next, `COCCNc1cc(Nc2nccc(-c3ccc(NC(=O)C4CC4)c(C#N)c3)n2)ccn1` [Example Compound 242, N-{2-Cyano-4-[2-({2-[(2-methoxyethyl)amino]pyridin-4-yl}amino)pyrimidin-4-yl]phenyl}cyclopropanecarboxamide]: 0.25 to 1 µM.

As to `COC1CN(c2cc(Nc3nccc(-c4ccc(NC(=O)C(C)C)c(C#N)c4)n3)ccn2)C1` [Example Compound 247, N-[2-Cyano-4-(2-{[2-(3-methoxyazetidin-1-yl)pyridin-4-yl]amino}pyrimidin-4-yl)phenyl]-2-methylpropanamide], the IC50 fell in the range of 0.25 to 1 µM.

The test is the same for the next values; noted with them: Homo sapiens, HEK-293T, 20 h, HEK293T cells, 20 hours; read-out: IC50, in-situ IKKε-mediated phosphorylation of IRF3.
`N#Cc1cc(-c2ccnc(Nc3ccc(C4CC4)nc3)n2)ccc1NC(=O)C1CC1` [Example Compound 140, N-(2-Cyano-4-{2-[(6-cyclopropylpyridin-3-yl)amino]pyrimidin-4-yl}phenyl)cyclopropanecarboxamide]: the half-inhibitory concentration (IC50) was less than 0.1 µM. In the case of `CN(C)c1ccc(Nc2nccc(-c3ccc(OC4CCOCC4)c(C#N)c3)n2)cn1` [Example Compound 152, 5-(2-{[6-(Dimethylamino)pyridin-3-yl]amino}pyrimidin-4-yl)-2-(tetrahydro-2H-pyran-4-yloxy)benzonitrile], the IC50 was 0.1 to 0.25 µM. For the compound `CCN(CC)c1ccc(Nc2nccc(-c3ccc(OC4CCOCC4)c(C#N)c3)n2)cn1` [Example Compound 153, 5-(2-{[6-(Diethylamino)pyridin-3-yl]amino}pyrimidin-4-yl)-2-(tetrahydro-2H-pyran-4-yloxy)benzonitrile], the IC50 lay in the range of 0.1 to 0.25 µM. Still for that read-out and setting: then `N#Cc1cc(-c2ccnc(Nc3ccc(C(=O)N4CCN(CCO)CC4)s3)n2)ccc1OC1CCOCC1` [Example Compound 163, 5-{2-[(5-{[4-(2-Hydroxyethyl)piperazin-1-yl]carbonyl}thiophen-2-yl)amino]pyrimidin-4-yl}-2-(tetrahydro-2H-pyran-4-yloxy)benzonitrile], with 0.1 to 0.25 µM; and `CN(C)c1ccc(-c2ccc(Nc3nccc(-c4ccc(OC5CCOCC5)c(C#N)c4)n3)cn2)cn1` [Example Compound 169, 5-(2-{[6′-(Dimethylamino)-2,3′-bipyridin-5-yl]amino}pyrimidin-4-yl)-2-(tetrahydro-2H-pyran-4-yloxy)benzonitrile], with 1 to 5 µM; and `N#Cc1cc(-c2ccnc(Nc3cncc(C(=O)N4CCOCC4)c3)n2)ccc1OC1CCOCC1` [Example Compound 172, 5-(2-{[5-(Morpholin-4-ylcarbonyl)pyridin-3-yl]amino}pyrimidin-4-yl)-2-(tetrahydro-2H-pyran-4-yloxy)benzonitrile], with 1 to 5 µM. Turning to `N#Cc1cc(-c2ccnc(Nc3cncc(C(=O)N4CCN(CCO)CC4)c3)n2)ccc1OC1CCOCC1` [Example Compound 174, 5-{2-[(5-{[4-(2-Hydroxyethyl)piperazin-1-yl]carbonyl}pyridin-3-yl)amino]pyrimidin-4-yl}-2-(tetrahydro-2H-pyran-4-yloxy)benzonitrile], the concentration for half-maximal inhibition (IC50) lay in the range of 1 to 5 µM. Regarding `N#Cc1cc(-c2ccnc(Nc3ccc(N4CCC(N5CCOCC5)C4)nn3)n2)ccc1OC1CCOCC1` (stereo not shown) [Example Compound 177, 5-[2-({6-[3-(Morpholin-4-yl)pyrrolidin-1-yl]pyridazin-3-yl}amino)pyrimidin-4-yl]-2-(tetrahydro-2H-pyran-4-yloxy)benzonitrile], the IC50 was 1 to 5 µM. On the same count and under the same terms, then `COC1CCN(c2cc(Nc3nccc(-c4ccc(OC5CCOCC5)c(C#N)c4)n3)ccn2)C1` (stereo not shown) [Example Compound 181, 5-(2-{[2-(3-Methoxypyrrolidin-1-yl)pyridin-4-yl]amino}pyrimidin-4-yl)-2-(tetrahydro-2H-pyran-4-yloxy)benzonitrile], with 1 to 5 µM; and `N#Cc1cc(-c2ccnc(Nc3cncc(CN4CCN(CCO)CC4)c3)n2)ccc1OC1CCOCC1` [Example Compound 186, 5-{2-[(5-{[4-(2-Hydroxyethyl)piperazin-1-yl]methyl}pyridin-3-yl)amino]pyrimidin-4-yl}-2-(tetrahydro-2H-pyran-4-yloxy)benzonitrile], with 1 to 5 µM. Still for that read-out and setting: next, `CN(C)Cc1cncc(Nc2nccc(-c3ccc(OC4CCOCC4)c(C#N)c3)n2)c1` [Example Compound 201, 5-[2-({5-[(Dimethylamino)methyl]pyridin-3-yl}amino)pyrimidin-4-yl]-2-(tetrahydro-2H-pyran-4-yloxy)benzonitrile]: 0.1 to 0.25 µM; `CNCc1cncc(Nc2nccc(-c3ccc(OC4CCOCC4)c(C#N)c3)n2)c1` [Example Compound 202, 5-[2-({5-[(Methylamino)methyl]pyridin-3-yl}amino)pyrimidin-4-yl]-2-(tetrahydro-2H-pyran-4-yloxy)benzonitrile]: 0.1 to 0.25 µM. Same read-out and setting: then `N#Cc1cc(-c2ccnc(Nc3ccc(N4CCOCC4)cn3)n2)ccc1OC1CCOCC1` [Example Compound 216, 5-(2-{[5-(Morpholin-4-yl)pyridin-2-yl]amino}pyrimidin-4-yl)-2-(tetrahydro-2H-pyran-4-yloxy)benzonitrile], with 1 to 5 µM; and `N#Cc1cc(-c2ccnc(Nc3ccnc(C(=O)N4CCCC4)c3)n2)ccc1OC1CCN(C(=O)CO)CC1` [Example Compound 233, 2-{[1-(Hydroxyacetyl)piperidin-4-yl]oxy}-5-(2-{[2-(pyrrolidin-1-ylcarbonyl)pyridin-4-yl]amino}pyrimidin-4-yl)benzonitrile], with 1 to 5 µM; and `COC1CN(C(C)c2ccc(Nc3nccc(-c4ccc(OC5CCOCC5)c(C#N)c4)n3)cn2)C1` (stereo not shown) [Example Compound 234, 5-[2-({6-[1-(3-Methoxyazetidin-1-yl)ethyl]pyridin-3-yl}amino)pyrimidin-4-yl]-2-(tetrahydro-2H-pyran-4-yloxy)benzonitrile], with 0.1 to 0.25 µM.

Turning to `Cc1ccc(Nc2nccc(-c3ccc(OC4CCN(C(=O)[C@H](C)O)CC4)c(C#N)c3)n2)c[n+]1[O-]` [Example Compound 235, 2-({1-[(2S)-2-Hydroxypropanoyl]piperidin-4-yl}oxy)-5-{2-[(6-methyl-1-oxidopyridin-3-yl)amino]pyrimidin-4-yl}benzonitrile], the IC50 is 1 to 5 µM. Still for that read-out and setting: then `N#Cc1cc(-c2ccnc(Nc3ccc[n+]([O-])c3)n2)ccc1OC1CCOCC1` [Example Compound 236, 5-{2-[(1-Oxidopyridin-3-yl)amino]pyrimidin-4-yl}-2-(tetrahydro-2H-pyran-4-yloxy)benzonitrile], with 1 to 5 µM; and `CC(C)C(=O)Nc1ccc(-c2ccnc(Nc3ccnc(N4CC(O)C4)c3)n2)cc1C#N` [Example Compound 246, N-[2-Cyano-4-(2-{[2-(3-hydroxyazetidin-1-yl)pyridin-4-yl]amino}pyrimidin-4-yl)phenyl]-2-methylpropanamide], with 1 to 5 µM; and `C[C@H](O)C(=O)N1CCC(Oc2ccc(-c3ccnc(Nc4ccc(N5CC(O)C5)nc4)n3)cc2C#N)CC1` [Example Compound 253, 5-(2-{[6-(3-Hydroxyazetidin-1-yl)pyridin-3-yl]amino}pyrimidin-4-yl)-2-({1-[(2S)-2-hydroxypropanoyl]piperidin-4-yl}oxy)benzonitrile], with 1 to 5 µM.

(Values after patent publication US20140288044A1, “COMPOSITIONS AND THERAPEUTIC USES OF IKK-RELATED KINASE EPSILON AND TANKBINDING KINASE 1 INHIBITORS” (Alzheimer's Institute of America, Inc., priority 2011, published 2014).)
